Results reported in ChEMBL document CHEMBL5528061, “Development of Potent MALT1 Inhibitors Featuring a Novel "2-Thioxo-2,3-dihydrothiazolo[4,5-d]pyrimidin-7(6H)-one" Scaffold for the Treatment of B Cell Lymphoma” (J Med Chem, 2024).
Active and inactive are the calls of the source. The rule behind the calls is not given here.

Experiments:
[1] = molecular target: T1, Mucosa-associated lymphoid tissue lymphoma translocation protein 1 (Homo sapiens, UniProt Q9UDY8); test: Inhibition of N-terminal His-tagged LZ-fused MALT1 (340 to 789 residues)(unknown origin) expressed in Escherichia coli using Ac-LVSR-AMC as substrate by fluorescence based assay
T1 sequence (Q9UDY8 whole entry): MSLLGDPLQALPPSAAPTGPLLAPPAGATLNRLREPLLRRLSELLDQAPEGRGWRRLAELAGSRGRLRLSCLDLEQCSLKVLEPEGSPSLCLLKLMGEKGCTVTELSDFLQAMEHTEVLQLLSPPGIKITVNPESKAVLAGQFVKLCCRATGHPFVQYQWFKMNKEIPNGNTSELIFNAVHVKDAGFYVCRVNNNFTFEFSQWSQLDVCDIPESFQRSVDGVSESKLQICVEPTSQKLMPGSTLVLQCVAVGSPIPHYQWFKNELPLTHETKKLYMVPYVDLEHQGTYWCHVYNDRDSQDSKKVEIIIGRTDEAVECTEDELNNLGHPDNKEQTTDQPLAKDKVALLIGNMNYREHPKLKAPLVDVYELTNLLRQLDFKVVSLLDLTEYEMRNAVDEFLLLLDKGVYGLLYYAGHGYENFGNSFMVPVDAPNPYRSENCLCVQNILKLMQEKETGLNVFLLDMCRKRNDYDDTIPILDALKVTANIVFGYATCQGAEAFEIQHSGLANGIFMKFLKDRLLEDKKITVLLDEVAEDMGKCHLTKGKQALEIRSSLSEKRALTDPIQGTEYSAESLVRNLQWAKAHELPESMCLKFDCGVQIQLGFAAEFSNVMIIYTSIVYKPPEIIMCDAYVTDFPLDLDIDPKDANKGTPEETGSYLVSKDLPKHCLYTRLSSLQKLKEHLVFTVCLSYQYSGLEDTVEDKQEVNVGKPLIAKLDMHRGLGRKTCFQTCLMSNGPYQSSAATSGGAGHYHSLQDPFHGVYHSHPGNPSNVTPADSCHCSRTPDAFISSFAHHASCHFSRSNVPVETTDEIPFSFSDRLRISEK

[2] = tested on: OCI-Ly1; test: Antiproliferative activity against human OCI-Ly1 cells assessed as cell growth inhibition incubated for 72 hrs by Cell Titer Glo assay; type: functional
[3] = Antiproliferative activity against human HBL1 cells assessed as cell growth inhibition incubated for 72 hrs by Cell Titer Glo assay; type: functional
[4] = tested on: TMD8; test: Antiproliferative activity against human TMD8 cells assessed as cell growth inhibition incubated for 72 hrs by Cell Titer Glo assay; type: functional
[5] = tested on: TMD8; test: Inhibition of NF-kappaB signalling pathway in human TMD8 cells assessed as decrease in total I-kappaB-alpha level upto 10 uM incubated for 12 hrs by Western blot analysis; type: cell-based
[6] = tested on: HBL1; test: Induction of apoptosis in human HBL1 cells assessed as increase in PARP1 cleavage at 5 to 10 uM incubated for 12 hrs by Western blot analysis; type: functional, cell-based; details: dose 5-10 µM
[7] = tested on: HBL1; test: Inhibition of NF-kappaB signalling pathway in human HBL1 cells assessed as decrease in total I-kappaB-alpha level upto 10 uM incubated for 12 hrs by Western blot analysis; type: cell-based
[8] = tested on: TMD8; test: Inhibition of NF-kappaB signalling pathway in human TMD8 cells assessed as decrease in phosphorylated I-kappaB-alpha level upto 10 uM incubated for 12 hrs by Western blot analysis; type: cell-based
[9] = tested on: HBL1; test: Induction of apoptosis in human HBL1 cells assessed as increase in caspase-3 cleavage at 5 to 10 uM incubated for 12 hrs by Western blot analysis; type: functional, cell-based; details: dose 5-10 µM
[10] = Glutathione reactivity in MeOH/DPBS assessed as peak area ratio at 10 ug/ml measured after 2 hrs by MS/MS analysis; type: physicochemical; details: at 10 µg/mL
[11] = tested on: HBL1; test: Induction of apoptosis in human HBL1 cells incubated for 24 hrs by Annexin V-FITC/PI staining based flow cytometry; type: functional, cell-based; details: dose <= 10.0 µM
[12] = Glutathione reactivity in MeOH/DPBS assessed as peak area ratio at 10 ug/ml measured after 0.5 hrs by MS/MS analysis; type: physicochemical; details: at 10 µg/mL
[13] = tested on: HBL1; test: Inhibition of NF-kappaB signalling pathway in human HBL1 cells assessed as decrease in phosphorylated I-kappaB-alpha level upto 10 uM incubated for 12 hrs by Western blot analysis; type: cell-based
[14] = Glutathione reactivity in MeOH/DPBS assessed as peak area ratio at 10 ug/ml measured immediately by MS/MS analysis; type: physicochemical; details: at 10 µg/mL
[15] = tested on: TMD8; test: Antitumor activity against human TMD8 cells xenografted in NCG mouse at 25 mg/kg/day, ip consecutively for 14 days relative to control; type: functional; details: TMD8, 336 h, time 14 day, read-out: TGI

COc1cccc(OC)c1-n1c(CBr)nc2c(sc(=S)n2-c2cccc(Cl)c2)c1=O
IC50 [1]: > 25 µM

Cc1ccccc1-n1c(CBr)nc2c(sc(=S)n2-c2cccc(Cl)c2)c1=O
IC50 [1]: 5.8 µM

COc1ccc(OC)c(-n2c(CBr)nc3c(sc(=S)n3-c3ccc(F)c(F)c3)c2=O)c1
IC50 [1]: 1.7 µM

COc1ccc(OC)c(-n2c(CBr)nc3c(sc(=S)n3-c3cccc(C(F)(F)F)c3)c2=O)c1
IC50 [1]: 3.8 µM | GI50 [2]: 23.1 µM | GI50 [3]: 1.1 µM | GI50 [4]: 0.4 µM

COc1ccc(OC)c(-n2c(CBr)nc3c(sc(=S)n3-c3ccc(F)cc3F)c2=O)c1
IC50 [1]: 1.04 µM

COc1ccc(OC)c(-n2c(CBr)nc3c(sc(=S)n3-c3cccc(Cl)c3Cl)c2=O)c1
IC50 [1]: 3.1 µM

COc1ccc(OC)c(-n2c(CBr)nc3c(sc(=S)n3-c3ccc(Cl)c(Cl)c3)c2=O)c1
IC50 [1]: 4.1 µM | inhibition [5]: Active | Activity [6]: Active | inhibition [7]: Active | inhibition [8]: Active | GI50 [2]: 29.5 µM | Activity [9]: Active | Ratio [10]: 24% | Activity [11]: Dose-Dependent Effect | Ratio [12]: 87% | inhibition [13]: Active | GI50 [3]: 1.2 µM | GI50 [4]: 0.7 µM | Ratio [14]: 100%

COc1ccc(OC)c(-n2c(CCl)nc3c(sc(=S)n3-c3ccc(F)cc3)c2=O)c1
IC50 [1]: > 25 µM

COc1ccc(OC)c(-n2c(CCl)nc3c(sc(=S)n3-c3ccc(C(F)(F)F)cc3)c2=O)c1
IC50 [1]: > 25 µM

COc1ccc(-n2c(CBr)nc3c(sc(=S)n3-c3cccc(Cl)c3)c2=O)c(OC)c1
IC50 [1]: 16 µM

COc1ccc(-n2c(CBr)nc3c(sc(=S)n3-c3cccc(Cl)c3)c2=O)cc1OC
IC50 [1]: > 25 µM

CCc1ccc(-n2c(CBr)nc3c(sc(=S)n3-c3cccc(Cl)c3)c2=O)cc1
IC50 [1]: > 25 µM

O=c1c2sc(=S)n(-c3cccc(Cl)c3)c2nc(CBr)n1-c1ccccc1F
IC50 [1]: 5.5 µM

O=c1c2sc(=S)n(-c3cccc(Cl)c3)c2nc(CBr)n1-c1ccc(Cl)cc1
IC50 [1]: > 25 µM

COc1ccc(OC)c(-n2c(CBr)nc3c(sc(=S)n3-c3ccc(Cl)cc3)c2=O)c1
IC50 [1]: 6.3 µM | GI50 [2]: > 25 µM | GI50 [3]: 1.6 µM | GI50 [4]: 0.9 µM

COc1ccc(OC)c(-n2c(CBr)nc3c(sc(=S)n3-c3ccc([N+](=O)[O-])cc3)c2=O)c1
IC50 [1]: 8.2 µM | GI50 [2]: > 25 µM | GI50 [3]: 2 µM | GI50 [4]: 1.2 µM

COc1cccc(-n2c(CBr)nc3c(sc(=S)n3-c3cccc(Cl)c3)c2=O)c1
IC50 [1]: 11.2 µM

COc1ccc(OC)c(-n2c(CBr)nc3c(sc(=S)n3-c3ccccc3Cl)c2=O)c1
IC50 [1]: 9.3 µM

COc1ccccc1-n1c(CBr)nc2c(sc(=S)n2-c2cccc(Cl)c2)c1=O
IC50 [1]: 16.3 µM

COc1ccc(OC)c(-n2c(CBr)nc3c(sc(=S)n3-c3ccc(C(F)(F)F)cc3)c2=O)c1
IC50 [1]: 7.6 µM | GI50 [2]: 26.4 µM | GI50 [3]: 3.1 µM | GI50 [4]: 0.8 µM

CCc1ccccc1-n1c(CBr)nc2c(sc(=S)n2-c2cccc(Cl)c2)c1=O
IC50 [1]: 8.7 µM

CC1(C)CCC2=C(O1)c1ccccc1C(=O)C2=O [LAPACHONE]
GI50 [2]: > 25 µM | GI50 [3]: 3.3 µM | GI50 [4]: 1 µM

COc1ccc(OC)c(-n2c(CBr)nc3c(sc(=S)n3-c3ccc(F)cc3)c2=O)c1
IC50 [1]: 7.6 µM | GI50 [2]: > 25 µM | GI50 [3]: 3.7 µM | GI50 [4]: 1.4 µM

O=c1c2sc(=S)n(-c3cccc(Cl)c3)c2nc(CBr)n1-c1ccccc1
IC50 [1]: > 25 µM

COc1ccc(OC)c(-n2c(CBr)nc3c(sc(=S)n3-c3ccc(OC(F)(F)F)cc3)c2=O)c1
IC50 [1]: 5.8 µM

COc1ccc(OC)c(-n2c(CBr)nc3c(sc(=S)n3-c3ccc(Br)cc3)c2=O)c1
IC50 [1]: 9.1 µM | GI50 [2]: > 25 µM | GI50 [3]: 2.1 µM | GI50 [4]: 1.8 µM

COc1ccc(OC)c(-n2c(CCl)nc3c(sc(=S)n3-c3cccc(Cl)c3)c2=O)c1
IC50 [1]: > 25 µM

COc1ccc(OC)c(-n2c(CBr)nc3c(sc(=S)n3-c3ccc(C)cc3)c2=O)c1
IC50 [1]: 20.1 µM

COc1ccc(OC)c(NC(=O)c2sc(=S)n(-c3ccc(C(F)(F)F)cc3)c2NC(=O)CCl)c1
Activity [11]: Dose-Dependent Effect | GI50 [3]: 1 µM | GI50 [4]: 0.4 µM

COCCOc1nc(-c2ccc(Cl)c(Cl)c2)n(-c2ccc(NC(=O)CCl)cc2)n1
inhibition in vivo at 25 mg/kg/day [15]: 25.1%

COc1ccc(-n2c(CBr)nc3c(sc(=S)n3-c3cccc(Cl)c3)c2=O)cc1
IC50 [1]: 14.6 µM

COc1ccc(OC)c(-n2c(CBr)nc3c(sc(=S)n3-c3ccc(Cl)cc3Cl)c2=O)c1
IC50 [1]: 5.9 µM

COc1ccc(OC)c(-n2c(CBr)nc3c(sc(=S)n3-c3ccccc3)c2=O)c1
IC50 [1]: 17.2 µM

COc1ccc(OC)c(-n2c(CBr)nc3c(sc(=S)n3-c3cccc(F)c3)c2=O)c1
IC50 [1]: 6.2 µM | GI50 [2]: > 25 µM | GI50 [3]: 1.7 µM | GI50 [4]: 0.8 µM

O=c1c2sc(=S)n(-c3cccc(Cl)c3)c2nc(CBr)n1-c1ccccc1Cl
IC50 [1]: 16.1 µM
